Assay results reported in patent US20230390250A1, “MODULATION OF GLUCAGON-LIKE PEPTIDE 1 AND USES THEREOF” (priority 2020, published 2023).
Entries after “also recorded” stand apart in the source; their conditions may differ. Like-named read-outs stand apart in the source and are kept apart here.

Tests used:
GLP-1 = assay: Circulating GLP-1 in mice injected with LPA, with or without LPAR antagonist pre-treatment; format: in vivo; conditions: for effect of LPA on circulating GLP-1 levels (words) / decrease in plasma GLP-1 levels after LPA injection: 50 mg/kg i.p.; for effect of LPA on circulating GLP-1 levels (words): mice; for rescue of the fall in blood GLP-1 levels caused by LPA: serum at 30 min (Examples 6, 8); for blood GLP-1 with antagonist alone versus vehicles: no LPA; for decrease in plasma GLP-1 levels after LPA injection: 30 minutes later, n=3 (Example 3, FIG. 4)
Protocol: We injected mice i.p. with vehicle (10% DMSO in isotonic saline) or 50 mg/kg of 1-oleoyl-2-hydroxy-LPA. Half of the mice injected with LPA were pre-injected with 5 mg/kg Ki-16425 10 minutes prior to receiving LPA. Thirty minutes later, samples of blood were taken by cardiac puncture, and circulating active GLP-1 levels in plasma were analysed by enzyme linked immunosorbent assay.
(§1) The experimental protocol was as follows: • 1. Mice were administered an LPAR antagonist drug, either by oral gavage (for BMS986020, SARI 00842, AM966, AM095, or H2L51863030), or by i.p. injection (for Ki-16425, and LPA2-antagonistl) at the doses indicated in the table below. • 2. Control mice were administered only the vehicle (a 10% DMSO solution) given via the same route as the comparison drug was administered. • 3. Ten minutes later, mice were injected i.p. either with isotonic saline, or with 50 mg/kg LPA. • 4. Thirty minutes later, mice were euthanized by cervical dyslocation, and blood was collected from the heart for preparation of serum that was stored at −80C until it was analyzed for total GLP-1 concentration by ELISA assay using a GLP-1 enzyme immunoassay kit.

DPP4 [1] = assay: DPP4 activity in serum of C57BI/6J mice; format: in vivo; conditions: 50 mg/kg 18:1-LPA i.p., serum 30 minutes later
Protocol: Mice were injected with 5 mg/kg Ki16425 or control (10% DMSO in isotonic saline), then injected 10 mins later with 50 mg/kg 1-18:1-LPA or saline (vehicle control), then euthanized 30 minutes later for serum collection and analysis.
as §1, with “(for” for “(for BMS986020,”, “00842” for “00842, AM966, AM095,”, “AM966),” for “H2L51863030),”, “Ki-16425)” for “Ki-16425, and LPA2-antagonistl)”, “18:1-LPA.” for “LPA.”

insulin secretion = conditions: prior study, Rancoule et al. 2013; cited from earlier work
GLUTag cells = assay: GLP-1 secretion from cultured GLUTag cells treated with LPA and/or LPAR antagonist; format: cell-based, mouse; conditions: for effect of LPAR antagonist alone on GLP-1 levels: 10 μM antagonist alone, 2 h; for rescue of LPA-inhibited GLP-1 secretion by LPAR antagonist: 10 μM antagonist plus 2.5 μM LPA; for decrease in GLP-1 secretion / level caused by LPA (fraction): 2-2.5 h
Protocol: We have grown GLUTag cells in culture to test effects of various LPA species and the LPAR 1/2/3 inhibitor Ki-16425. GLUTag cells are a well characterized L-cell line derived from a mouse intestinal tumour, which have been widely used to study the regulation of GLP-1. Briefly, GLUTag cells were grown until 80-90% confluent. Complete medium, containing fetal bovine serum, was replaced with medium containing charcoal[…] dextran treated serum, which removes lipids and hormones that could interfere with testing. […] This indicates a direct inhibitory effect of LPA at physiologically relevant levels on GLP-1 secretion by L-cells, and the ability of a commercially available LPAR antagonist to prevent this.
Experimental Protocol. Briefly, GLUTag cells were grown until 70-80% confluent. Complete medium (low glucose DMEM), containing fetal bovine serum, was replaced with medium containing charcoal-dextran treated serum, which removes lipids and hormones that could interfere with testing. Cells were then treated with medium containing either DMSO as vehicle control (0.1% v/v), 2.5 μM LPA, 10 μM LPAR antagonist, or a combination of the LPA species and inhibitors. For cells treated with both LPA plus LPAR inhibitor: cells were pre-treated with LPA for 30 minutes and then 10 uM LPAR inhibitor was added to the respective wells for a further 2 hours. For cells treated with LPA only, or vehicle only, the total treatment time was 2.5 hours. For cells treated with antagonist only, the treatment time was 2 hours.

LPAR3 = biological target: T1, LPAR3 (Homo sapiens, UniProt Q9UBY5); conditions: cited from earlier work
T1 sequence (Q9UBY5 1-353): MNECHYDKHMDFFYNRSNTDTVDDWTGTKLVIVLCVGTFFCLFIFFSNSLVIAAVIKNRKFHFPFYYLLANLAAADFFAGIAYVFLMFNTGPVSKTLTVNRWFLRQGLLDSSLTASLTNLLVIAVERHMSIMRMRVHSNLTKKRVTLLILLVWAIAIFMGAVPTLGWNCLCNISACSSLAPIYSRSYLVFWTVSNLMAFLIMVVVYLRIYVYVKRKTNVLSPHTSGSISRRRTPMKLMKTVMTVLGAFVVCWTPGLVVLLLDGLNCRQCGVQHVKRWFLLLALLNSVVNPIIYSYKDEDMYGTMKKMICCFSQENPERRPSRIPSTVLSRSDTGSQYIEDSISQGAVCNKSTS

LPAR2 = LPAR2 (Homo sapiens, UniProt Q9HBW0); conditions: cited from earlier work
LPAR1 [2] = biological target: T2, LPAR1 (Homo sapiens, UniProt Q92633); conditions: cited from earlier work
Target sequence in this assay (Q92633 whole entry, species assumed): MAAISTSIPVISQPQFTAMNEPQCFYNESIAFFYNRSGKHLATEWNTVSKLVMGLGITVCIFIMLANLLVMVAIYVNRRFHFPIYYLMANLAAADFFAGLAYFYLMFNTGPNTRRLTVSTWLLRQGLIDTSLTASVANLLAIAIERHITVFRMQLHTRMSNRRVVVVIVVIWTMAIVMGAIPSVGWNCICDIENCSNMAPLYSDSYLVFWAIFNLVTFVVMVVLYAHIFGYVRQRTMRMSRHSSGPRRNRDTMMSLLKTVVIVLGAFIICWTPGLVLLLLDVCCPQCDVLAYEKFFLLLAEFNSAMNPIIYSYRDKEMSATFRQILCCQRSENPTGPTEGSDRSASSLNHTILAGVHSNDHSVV

LPAR1 [3] = biological target: T2, LPAR1; set-up: expressed in transfected cells; host or cells: CHO cells; conditions: LPA-induced calcium response, CHO cells with LPAR1; cited from earlier work
Target sequence in this assay (Q92633 whole entry): as the sequence (Q92633 whole entry, species assumed) above

DPP4 [4] = assay: DPP4 activity in serum of C57BI/6J mice; format: in vivo
DPP4 [5] = assay: DPP4 activity in GLUTag cells (fluorometric kit ab204722); format: cell-based, mouse
Protocol: Briefly, GLUTag cells were grown to produce the recommended quantity needed for the assay according to the manufacturer's protocol (ab204722 Dipeptidyl peptidase IV Activity Assay Kit (Fluorometric)), and then the wells were treated in media containing charcoal-stripped FBS (10%), with either nothing (no treatment control), or vehicle control (0.05% DMSO), or 2.5 uM 18:1-LPA for 30 minutes, and then the inhibitors (as indicated in the graph of FIG. 17) were added to the vehicle wells and the 2.5 uM 18:1-LPA wells at 10 uM concentrations, as indicated on the graph (FIG. 17), for an additional 2 hours. Cells were then harvested according to the manufacturer's protocol, and lysed using reagents from the kit. Charcoal-stripped FBS was used to remove lipids, including LPA, from serum. Experiments were also carried out wherein the FBS was not stripped with charcoal, and the results were not different.
According to the manufacturer, dipeptidyl peptidase IV (DPP4) Activity Assay Kit (Fluorometric) (ab204722) is an assay where DPP4 cleaves a substrate to release a quenched fluorescent group, AMC (7-Amino-4-Methyl Coumarin), which can be easily detected at Ex/Em=360/460 nm. This assay is rapid, simple, sensitive, and reliable, as well as, suitable for high throughput activity screening of DPP4. This kit detects DPP4 activity as low as 3 ρU per well.

[6] = antagonist 30 mg/kg by gavage 10 min before 50 mg/kg 18:1-LPA i.p.

Chain of LPAR2 (Q9HBW0 whole entry, species assumed): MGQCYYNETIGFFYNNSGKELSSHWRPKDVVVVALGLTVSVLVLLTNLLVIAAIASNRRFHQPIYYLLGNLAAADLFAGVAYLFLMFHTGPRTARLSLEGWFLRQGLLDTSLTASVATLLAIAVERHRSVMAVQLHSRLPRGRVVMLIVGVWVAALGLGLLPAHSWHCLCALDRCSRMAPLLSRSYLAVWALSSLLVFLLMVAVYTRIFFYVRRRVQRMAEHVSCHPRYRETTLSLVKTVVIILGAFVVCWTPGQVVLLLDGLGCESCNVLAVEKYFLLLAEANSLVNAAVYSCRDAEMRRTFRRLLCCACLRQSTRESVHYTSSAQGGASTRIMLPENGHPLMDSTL

Compound: lysophosphatidic acid [LPA]
- effect of LPA on circulating GLP-1 levels (words) (GLP-1): suppressed
- fall in serum GLP-1 levels after LPA injection (GLP-1; vehicle (10% DMSO)-treated mice, 50 mg/kg 18:1-LPA i.p., 30 min, serum (Example 6)): > 50%
- effect of LPA on DPP4 activity in mouse serum (DPP4 [1]): lack of effect; also recorded: not significantly affected
- insulin secretion in mice injected with LPA (insulin secretion): impaired

Compound: O=C(O)/C=C\C(=O)Nc1ccc(Oc2cccc(Oc3ccc(NC(=O)/C=C\C(=O)O)cc3)c2)cc1 [H2L5186303]
- effect of LPAR antagonist alone on GLP-1 levels (GLUTag cells): no significant effect; also recorded: did not significantly affect
- rescue of LPA-inhibited GLP-1 secretion by LPAR antagonist (GLUTag cells): partially rescued
- Ki (LPAR3): ~5000 nM
- IC50 (LPAR3; read-out: IC50 for LPAR3): 4500 nM
- IC50 (LPAR2): 8.9 nM
- Ki (LPAR2): 8.9 nM
- rescue of the fall in blood GLP-1 levels caused by LPA (GLP-1; [6]): partially rescued; also recorded: partial rescue
- blood GLP-1 with antagonist alone versus vehicles (GLP-1; antagonist 30 mg/kg by gavage): slightly, but significantly lower
- Ki (LPAR1 [2]): 27000 nM
- IC50 (LPAR1 [2]; read-out: IC50 for LPAR1): 27400 nM

Compound: CCCCCCCCCCCCCCCCCC(=O)OCC(O)COP(=O)(O)O (stereo not shown) [1-stearoyl-2-hydroxy-LPA]
- decrease in GLP-1 secretion / level caused by LPA (fraction) (GLUTag cells; 2.5 μM LPA): over 2/3

Compound: Cc1csc2c(N[C@@H](C)CN3CCN(S(=O)(=O)c4ccc(Cl)c(Cl)c4)CC3)ncnc12 [LPA2-antagonist 1]
- effect of LPAR antagonist alone on GLP-1 levels (GLUTag cells): no significant effect
- effect of LPAR antagonist alone on GLP-1 levels (GLUTag cells; listed as LPA2-antagonist): did not significantly reduce
- rescue of LPA-inhibited GLP-1 secretion by LPAR antagonist (GLUTag cells): complete rescue
- rescue of LPA-inhibited GLP-1 secretion by LPAR antagonist (GLUTag cells; listed as LPA2-antagonist): significantly increased
- IC50 (LPAR3; read-out: IC50 for LPAR3): > 50000 nM
- IC50 (LPAR3; read-out: IC50 with LPAR3): > 50000 nM
- IC50 (LPAR2): 17 nM
- rescue of the fall in blood GLP-1 levels caused by LPA (GLP-1; antagonist 5 mg/kg i.p. 10 min before 50 mg/kg 18:1-LPA i.p.): lack of rescue
- rescue of the fall in blood GLP-1 levels caused by LPA (GLP-1; antagonist 5 mg/kg i.p. 10 min before 50 mg/kg 18:1-LPA i.p., listed as LPA2-antagonist): did not significantly rescue
- blood GLP-1 with antagonist alone versus vehicles (GLP-1; antagonist 5 mg/kg i.p.): slightly, but significantly lower
- IC50 (LPAR1 [2]; read-out: IC50 for LPAR1): > 50000 nM
- IC50 (LPAR1 [2]; read-out: IC50 with LPAR1): > 50000 nM

Compound: CCCCCCCCCCCCCCCC(=O)OCC(O)COP(=O)(O)O (stereo not shown) [1-palmitoyl-2-hydroxy-LPA]
- decrease in GLP-1 secretion / level caused by LPA (fraction) (GLUTag cells; 2.5 μM LPA): over 2/3

Compound: Cc1noc(-c2ccc(-c3ccc(C4(C(=O)O)CC4)cc3)cc2)c1NC(=O)O[C@H](C)c1ccccc1 [BMS-986020]
- effect of LPAR antagonist alone on GLP-1 levels (GLUTag cells): no significant effect
- rescue of LPA-inhibited GLP-1 secretion by LPAR antagonist (GLUTag cells): partially rescued
- rescue of LPA-inhibited GLP-1 secretion by LPAR antagonist (GLUTag cells; listed as BMS986020): did significantly restore GLP-1 secretion
- rescue of the fall in blood GLP-1 levels caused by LPA (GLP-1; [6]): did not significantly rescue
- blood GLP-1 with antagonist alone versus vehicles (GLP-1; antagonist 30 mg/kg by gavage): indistinguishable from mice treated only with the vehicles
- Ki (LPAR1 [2]): < 300 nM
- IC50 (LPAR1 [2]; read-out: IC50 for LPAR1): < 300 nM

Compound: COc1ccc(C(=O)NC2(C(=O)O)Cc3ccccc3C2)cc1OCCc1cccc(C)c1 [SAR100842]
- concentration up to which no activity with LPAR3 (LPAR3; no activity up to): > 10,000 nM
- concentration up to which no reported activity on LPAR3 (LPAR3; no reported activity up to): > 10 µM
- concentration up to which no activity with LPAR2 (LPAR2; no activity up to): > 10,000 nM
- concentration up to which no reported activity on LPAR2 (LPAR2; no reported activity up to): > 10 µM
- rescue of the fall in blood GLP-1 levels caused by LPA (GLP-1; [6]): completely abrogated; also recorded: Complete rescues; also recorded: restored to normal levels
- blood GLP-1 with antagonist alone versus vehicles (GLP-1; antagonist 30 mg/kg by gavage): indistinguishable from mice treated only with the vehicles
- IC50 (LPAR1 [2]; in cells, read-out: IC50 in cells for LPAR1): ~100 nM
- IC50 (LPAR1 [3]): 59 to 262 nM
- effect of antagonist on DPP4 activity in mouse serum (DPP4 [4]; 30 mg/kg by gavage): did not significantly affect; also recorded: lack of effect; also recorded: not significantly affected
- effect of 18:1-LPA combined with antagonist on DPP4 activity in mouse serum (DPP4 [4]; antagonist 30 mg/kg by gavage then 50 mg/kg 18:1-LPA): did not affect
- effect of 18:1-LPA combined with LPAR antagonist on DPP4 activity in GLUTag cells (DPP4 [5]; 2.5 uM 18:1-LPA 30 minutes, then 10 uM antagonist 2 hours): did not significantly affect
- effect of LPAR antagonist alone on DPP4 activity in GLUTag cells (DPP4 [5]; 10 uM antagonist, 2 hours): did not significantly affect

Compound: CCCCC/C=C\C/C=C\CCCCCCCC(=O)OCC(O)COP(=O)(O)O (stereo not shown) [18:2-LPA, 1-linoleoyl-2-hydroxy-LPA]
- effect of LPA on GLP-1 secretion (GLUTag cells; 2.5 μM LPA): decreases GLP-1 secretion
- decrease in GLP-1 secretion / level caused by LPA (fraction) (GLUTag cells; 2.5 μM LPA): > 2/3
- decrease in GLP-1 secretion / level caused by LPA (fraction) (GLUTag cells; 2.5 μM LPA, listed as 1-linoleoyl-2-hydroxy-LPA): over 2/3

Compound: CCCCCCCC/C=C\CCCCCCCC(=O)OC[C@@H](O)COP(=O)(O)O [18:1-LPA, 1-oleoyl-2-hydroxy-LPA]
- decrease in GLP-1 secretion / level caused by LPA (fraction) (GLUTag cells; 2.5 μM LPA): > 2/3
- decrease in GLP-1 secretion / level caused by LPA (fraction) (GLUTag cells; 2.5 μM LPA, listed as 1-oleoyl-2-hydroxy-LPA): over 2/3
- decrease in plasma GLP-1 levels after LPA injection (GLP-1): ~60%
- decrease in plasma GLP-1 levels after LPA injection (GLP-1; listed as 1-18:1-LPA): over 60%
- effect of LPA on circulating GLP-1 levels (words) (GLP-1): decreased
- effect of LPA on circulating GLP-1 levels (words) (GLP-1; listed as 1-oleoyl-2-hydroxy-LPA): decreases circulating GLP-1 levels
- effect of LPA on DPP4 activity in mouse serum (DPP4 [1]): did not affect
- effect of LPA on DPP4 activity in GLUTag cells (DPP4 [5]; 2.5 uM 18:1-LPA): did not significantly reduce
